{"source": "patent US12590965B2", "about": "“Palmitoyl protein biomarkers in purified extracellular vesicles for early identification of clinically significant prostate cancer” (priority 2012, dated 2026)", "key": {"PC3 cells": {"tested_on": "PC3 cells", "assay": "Titration of 2-bromopalmitate to a non-toxic concentration in PC3 cells", "format": "cell-based", "settings": "24 hours, serum-starvation", "procedure": "(§1) The PC3 cell line was obtained from the American Type Culture Collection (ATCC). The DU145DIAPH3-KD cell line, stably transfected with DIAPH3 shRNA, was generated in our laboratories. PC3 and DU145DIAPH3-KD cell lines were cultured in DMEM (Invitrogen). All cells were supplemented with 10% foetal bovine serum (Denville Scientific), 2 mM L-glutamine (Invitrogen) and 1% PenStrep (Invitrogen). DU145DIAPH3-KD cells were additionally selected with 2 μg/mL puromycin as described. All cells were grown at 37° C. and 5% CO2. Cell viability of the EV-producer cells was tested with the 0.4% Trypan Blue (Sigma) exclusion method. All cell lines were routinely tested for mycoplasma contamination by using the MycoAlert PLUS Mycoplasma Detection Kit (Lonza). Finally, in order to collect EVs from cells in which palmitoylation was inhibited, PC3 cells were treated for 24 hours with 2-bromohexadecanoic acid (Sigma), also known as 2-bromopalmitate (0.5, 1, 5, 10, 20, 50 and 100 μM), in serum-starvation.\nFinally, we investigated if palmitoylation had any influence on the localization of select proteins in EVs. To do so, we titrated the concentration of 2-bromopalmitate (2-BP), a general inhibitor of palmitoylation, to a non-toxic concentration of 10 μM in PC3 cells (data not shown) in order to avoid any alterations in the EV shedding (FIG. 18(d)) and recovery of EV-protein (FIG. 18(e)). […]"}, "[1]": {"tested_on": "palmitoylation in PC3 cells", "assay": "Immunoblot of protein abundance in PC3 L- and S-EVs after inhibition of palmitoylation", "format": "cell-based", "procedure": "as §1\nThe isolation of EVs was conducted as previously described with minor modifications (Vagner et al. Large extracellular vesicles carry most of the tumour DNA circulating in prostate cancer patient plasma. J Extracell Vesicles. 2018; 7(1):1505403; Minciacchi et al. Large oncosomes contain distinct protein cargo and represent a separate functional class of tumor-derived extracellular vesicles. Oncotarget. 2015; 6(13):11327-11341; Minciacchi et al. MYC mediates large oncosome-induced fibroblast reprogramming in prostate cancer. Cancer Res. 2017; 77(9):2306-2317). Cells were grown on 18×150 cm^2-cell culture plates (Corning) until 90% confluence, washed in PBS and serum-starved for 24 hours before the collection of conditioned cell media. The conditioned media was cleared by differential centrifugation of floating cells at 300 g, of cell debris at 2,800 g for 10 min, and spun in an ultracentrifuge at 10,000 g for 30 min (4° C., k-factor 2547.2) for the collection of L-EVs. The supernatant was then spun at 100,000 g for 60 min (4° C., k-factor 254.7) for the collection of S-EVs. Both 10,000 g and 100,000 g pellets were then subjected to Optiprep™ (Sigma) density gradient purification. Fresh pelleted EVs were resuspended in 0.2 μm-filtered PBS and deposited at the bottom of an ultracentrifuge tube. […]\nImmunoblotting analysis was performed as described (Zhou et al. Low-background Acyl-biotinyl exchange largely eliminates the co-isolation of non-S-Acylated proteins and enables deep S-Acylproteomic analysis. Anal Chem. 2019; 91(15):9858-9866). […] Densitometric quantification of films was performed with the ImageJ software (v1.52a). […]"}, "[2]": {"settings": "10 μM 2-BP for 24 h, PC3 L- and S-EVs"}}, "note": "Entries after “also recorded” stand apart in the source; their conditions may differ.", "data": [{"smiles": "CCCCCCCCCCCCCCC(Br)C(=O)O", "note": "(centres unmarked) [2-BP, 2-bromohexadecanoic acid]", "values": [{"measurement": "non-toxic concentration", "setting": "PC3 cells", "result": 10, "unit": "µM"}, {"measurement": "ABCC4 in EVs", "setting": "[1]; [2]", "result": "decrease; also recorded: reduced"}, {"measurement": "STEAP1 in EVs", "setting": "[1]; [2]", "result": "decrease"}, {"measurement": "STEAP2 in EVs", "setting": "[1]; [2]", "result": "decrease; also recorded: reduced"}, {"measurement": "Cav-1 levels in EVs", "setting": "[1]; 10 μM 2-BP, PC3 EVs", "result": "did not change; also recorded: did not alter the localization"}]}]}
